According to patent US20250170224A1, “METHODS AND COMPOSITIONS FOR TREATING MICROGLIAL DYSFUNCTION AND IMPROVING METABOLIC DYSFUNCTION” (Ultimate Medicine AG, priority 2021, published 2025):

System: microglia
Experiment: CML given intraperitoneally or by oral gavage to young-adult and aged SPF mice; microglia analysed
Assay type: in vivo, mouse
Experimental: Specific pathogen-free (SPF) and germ-free (GF) housed C57BL/6 mice were analyzed at 6-10 weeks of age (young-adult) and 96-104 weeks of age (aged). Mice of the aged group in the nontargeted metabolomics analysis were 17-18 months old. Except for nontargeted metabolomics and microbiota profiling, where only male mice were used, all groups included mice from both sexes. Mice were housed under a 12-hour light/12-hour dark cycle and temperatures of 18-23° C. with 40-60% humidity, with food and water given ad libitum. To avoid cage effects, mice from at least three different cages per experimental group were analyzed. […] For modulation of CML in aged animals, 18-month-old SPF housed C57BL/6 mice were treated orally every third day for 10 weeks with vehicle (20% hydroxypropyl-p-cyclodextrin in 1× phosphate-buffered saline (PBS)), 10 mg kg^−1 ellagic acid (EA) or 3,000 U kg^−1 intestinal alkaline phosphatase (IAP). To assess in vivo intestinal permeability, tracer fluorescein isothiocyanate (FITC)-labeled dextran (4 kDa: Sigma-Aldrich) was used. Briefly, mice were deprived of food 4 hours before and both food and water 4 hours after oral gavage using 200 μl of 80 mg ml^−1 FITC-dextran. Blood was collected retro-orbitally after 4 hours and fluorescence intensity was measured on fluorescence plates using an excitation wavelength of 493 nm and an emission wavelength of 518 nm. To assess in vivo intestinal permeability to CML, mice were treated with […] CML (0.36 mM). Blood was collected retro-orbitally immediately before and 4 hours after treatment. CML translocated into the circulation was measured by liquid chromatography-mass spectrometry (LC-MS). All animal experiments were approved by the local administration in Germany (Regierungsprasidium Freiburg) and were performed in accordance with the respective national, federal, and institutional regulations and the guidelines of the Federation of European Laboratory Animal Science Associations.
Brains were fixed in 4% PFA, dehydrated in 30% sucrose and embedded in Tissue-Tek OCT compound (Sakura Finetek). Fourteen micrometer-thick cryosections were obtained using a cryostat (SM2000R; Leica Biosystems). FFPE tissue from mouse and human brains was sectioned by a microtome to obtain 5-pm sections. Epitopes were unmasked by heat-induced antigen retrieval at pH 6. Sections were blocked with PBS containing 5% bovine serum albumin (BSA) and permeabilized with 0.5% Triton X-100 in blocking solution. The following primary antibodies were incubated overnight at 4° C.: rabbit anti-Iba-1 (1:500 dilution; WAKO); guinea pig anti-Iba-1 (1:1,000 dilution; Synaptic Systems); anti-iNOS (1:500 dilution; Thermo Fisher Scientific) or anti-CML (1:500; Abcam). Secondary antibodies (Alexa Fluor 488-, 568- or 647-conjugated, 1:500 dilution) were incubated for 2 hours at room temperature. For three dimensional (3D)-reconstruction of microglia, free-floating 30-pm cryosections from brain tissue were labeled for 48 hours with anti-Iba-1 (1:500 dilution) at 4° C., followed by Alexa Fluor 647-conjugated secondary antibody at a dilution of 1:500 overnight at 4° C. […] For 3D-reconstruction of microglia, images were analyzed using Imaris v.8.02 (Bitplane) with at least five cells per mouse. All other images were processed and analyzed with Photoshop CC 2015 (Adobe) or ImageJ v.1.53f (National Institutes of Health). […]

[1] = aged mice, both intraperitoneal and oral gavage routes

## N[C@@H](CCCCNCC(=O)O)C(=O)O [CML, N^6-carboxymethyllysine]
[1]
  cellular ROS in microglia: significantly exacerbated the age-related increase in cellular ROS
  metabolic function (cellular ATP) in microglia: diminished metabolic function
Aged mice, i.p. versus oral gavage
  effect of route of CML administration on percentage of CML+ microglia: no effect
young-adult mice
  CML+ microglia in the cortex, intraperitoneal rather than oral gavage: more CML^+ microglia in the cortex
young-adult mice, i.p. versus oral gavage
  effect on cellular ROS and metabolic function in microglia: only detectable after intraperitoneal administration
